PubChem BioAssay (NCI)
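How tested: cells in 96-well plates exposed to compound for 48 hours at five concentrations. TGI marks complete inhibition of growth.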

Key:
Assay in all cases: NCI-60 cell line screen, 48 h
[1] = tested on: SF-539 CNS
[2] = tested on: SNB-75 CNS
[3] = tested on: EKVX NSCLC
[4] = tested on: SF-268 CNS
[5] = tested on: SK-MEL-2 melanoma
[6] = tested on: HT29 colon
[7] = tested on: COLO 205 colon
[8] = tested on: HCT-15 colon
[9] = tested on: 786-0 renal
[10] = tested on: CAKI-1 renal
[11] = tested on: OVCAR-8 ovarian
[12] = tested on: OVCAR-5 ovarian
[13] = tested on: HL-60(TB) leukemia
[14] = tested on: NCI-H23 lung
[15] = tested on: UO-31 renal
[16] = tested on: HS 578T breast
[17] = tested on: NCI-H460 lung
[18] = tested on: OVCAR-3 ovarian
[19] = tested on: MDA-N
[20] = tested on: T-47D breast
[21] = tested on: UACC-62 melanoma
[22] = tested on: HOP-92 NSCLC
[23] = tested on: ACHN renal
[24] = tested on: SF-295 CNS
[25] = tested on: M14 melanoma
[26] = tested on: UACC-257 melanoma
[27] = tested on: PC-3 prostate
[28] = tested on: OVCAR-4 ovarian
[29] = tested on: MCF7 breast
[30] = tested on: SW-620 colon
[31] = tested on: TK-10 renal
[32] = tested on: U251 CNS
[33] = tested on: SR leukemia
[34] = tested on: A549 NSCLC
[35] = tested on: HOP-62 NSCLC
[36] = tested on: SK-MEL-5 melanoma
[37] = tested on: NCI-H522 lung
[38] = tested on: SNB-19 CNS
[39] = tested on: MDA-MB-231 breast
[40] = tested on: CCRF-CEM leukemia
[41] = tested on: SN12C renal
[42] = tested on: MDA-MB-435
[43] = tested on: KM12 colon
[44] = tested on: SK-OV-3 ovarian
[45] = tested on: MOLT-4 leukemia
[46] = tested on: NCI/ADR-RES ovarian
[47] = tested on: BT-549 breast
[48] = tested on: HCT-116 colon
[49] = tested on: RPMI-8226 leukemia
[50] = tested on: IGROV1 ovarian
[51] = tested on: A498 renal
[52] = tested on: LOX IMVI melanoma
[53] = tested on: K-562 leukemia
[54] = tested on: DU-145 prostate
[55] = tested on: HCC-2998 colon
[56] = tested on: NCI-H226 lung
[57] = tested on: SK-MEL-28 melanoma
[58] = tested on: RXF 393 renal

Measured: TGI

O=C(Cn1nnc(-c2ccccc2)n1)N/N=C/c1cn(Cc2ccc(Cl)cc2Cl)c2ccccc12
not listed: [55] | [56] | [57] | [58]
> 100 µM: all other assays above

[N-]=[N+]=NCC1OCC(O)C(OCc2ccccc2)C1OCc1ccccc1 (configuration not stated)
not listed: [58]
> 100 µM: all other assays above

NC(N)=NCCCC(NC(=O)OCCCCCn1ccc(N)nc1=O)C(=O)O (configuration not stated)
not listed: [36] | [37]
> 100 µM: all other assays above
